Several values for one entry are separate records, joined by “and”; a condition that tells them apart may be missing. Equal entries are not always repeated.
Experiments:
[1] = Clearance (comments of Table V); assay type: in vitro ADME
[2] = tested on: retinal ganglion cell axons; test: Protection of retinal ganglion cell axons from degeneration following optic nerve transection, RT 97 axon density (Table V); assay type: in vivo
Excerpt: Efficacy of representative compounds from different immunophilin ligand series in protecting retinal ganglion cell axons from degeneration following optic nerve transection is set forth in Table V.

optic nerve axons = test: Optic nerve transection, optic nerve axon density (RT97 neurofilament immunohistochemistry); assay type: in vivo, Sprague Dawley rats; conditions: for % surviving RGCs with ON axons / ON head area (% sham) / increased ON axon density / ON axon Count / ON Axon density: 90 days after ONT; for increased ON axon density: adjusted for optic nerve diameter; for ON axon Count: axonal density multiplied by ON area; for ON Axon density: mean + SEM in 200 μm × 200 μm region
Excerpt: (§1) All eyes and optic nerves stumps were removed.
^2 mean density + SEM of RT97 neurofilament antibody labeled optic
nerve (ON) axons in 200 μm × 200 μm region of interest
^3 adjusted for optic nerve diameter
^4 calculated by multiplying axonal density by ON area

optic nerve myelin = test: Optic nerve transection, myelin basic protein immunohistochemistry of optic nerve stumps; assay type: in vivo, Sprague Dawley rats; conditions: for Proximal optic nerve myelin basic protein Density, % recovery: SEM
Excerpt: as §1
^5 determined from 20X analysis of % areal coverage of optic nerve
^6 shrinkage determined by comparing cross sectional area to sham
control, myelin, leves determined by multiplying cross sectional area by […]

retinal ganglion cells = test: Retinal ischemia, retinal ganglion cell degeneration; assay type: in vivo, adult rats; conditions: 10 mg/kg, s.c. 1 hour prior to ischemia and 10 mg/kg/day next four days; 28 days
Excerpt: Retinal ganglion cells were retrogradely labeled in adult rats by bilateral injection of fluorogold in their lateral geniculate nuclei. Labeled ganglion cells in the normal rat retina appear as white profiles against the dark background (FIG. 1A). Complete retinal ischemia was produced by infusing normal saline solution into the retinal vitreous cavity of each eye until the intraocular pressure exceeded arterial blood pressure. 28 days after the ischemic episode extensive degeneration of retinal ganglion cell was evidenced by massive reduction in the density of fluorogold labeled cells (FIG. 1B).

retina = test: Streptozotocin induced diabetes, retinal neovascularization and neuron loss (cresyl violet); assay type: in vivo
[3] = tested on: streptozotocin-induced diabetic rat; test: Streptozotocin-induced diabetic sensory neuropathy, hot plate and tail flick tests; assay type: in vivo, Male Wistar rats; conditions: 10 mg/kg s.c., 6 weeks
Protocol: The procedure involved using Male Wistar rats which were given a single injection of streptozotocin (65 mg/kg i.v.). Blood glucose levels were determined weekly for the first three weeks and on the last week of the experiment. Animals were evaluated weekly for signs of sensory neuropathy using the conventional hot plate and tail flick apparatus test procedures.

aged mice = test: Morris watermaze, spatial learning and memory in aged mice; assay type: in vivo, male C57BL/6N-Nia mice; conditions: 10mg/kg daily
Excerpt: The Morris watermaze is widely used for assessing spatial memory formation and retention in experimental animals. The test depends on the animal's ability to utilize spatial visual information in order to locate a submerged escape platform in a water tank. It is important that the tank itself be as devoid of specific visual features as possible--thus, it is always circular in shape, the sides are kept smooth and in uniform dull colors, and the water is rendered opaque with nontoxic watercolor pigment or powdered milk. This is to ensure that the animal navigates only by the use of more distant visual cues, or by the use of intra-maze cues specifically provided by the experimenter. The tank is filled to a level which forces the animal to swim actively. Normal mice and rats react […] to the swimming part of the test and will climb onto, and remain on, an escape platform from which they are removed to a heated resting cage. If the platform is visible (i.e. above the surface), animals placed in the tank will quickly learn to home in on the platform and climb out onto it. Testing with a visible platform will also ensure that the experimental animals are not blind and show sufficient motivation and stamina to perform the task, which can be important in experiments involving aged rodents. If the platform is invisible (i.e. submerged just below the surface), normal animals learn to use distant visual cues in the test room for orientation in the test tank, and, when placed in the tank, will quickly home in on the approximate location of the platform and circle in that area until the platform is found. The animals' path, speed, and swim time are tracked with a ceiling camera for later computerized analysis. Over the course of several successive trials, spatial learning can therefore be defined as a drop of distance swum, or time elapsed, from placement in the tank until escape onto the invisible platform. The test can be adapted to assess several aspects of spatial memory: a) acquisition of a cued task, where the animal's ability to link one visual cue directly with the escape platform depends on cortical function (i.e. a ball is suspended over the escape platform and the animal learns to follow this cue to find the platform); b) acquisition of a spatial task, where the animal's ability to learn the location of a submerged escape platform based on a combination of distant visual cues is dependent upon hippocampal function (i.e. the animal learns to triangulate its position in the tank by visually aligning the paper-tower dispenser with the door and ceiling lamp); c) retention of a successfully acquired spatial task, which is predominantly dependant on cortical function (i.e. the animal must remember the spatial location of the platform over several weeks); d) a hippocampus-dependant reversal task where the animals must reacquire a new spatial platform location (i.e. the platform is moved to a new location between swim trials and the animal must abandon its previous search strategy and acquire a new one). These different modifications of the Morris watermaze procedure can be applied in sequence to the same set of experimental animals and allow for a thorough characterization of their spatial memory performance and its decline with normal ageing. […]

peripheral nerve = test: Peripheral nerve regeneration; conditions: in vivo
CNS = test: Sprouting within the CNS following partial deafferentation; assay type: in vivo
[4] = tested on: central and peripheral nervous systems; conditions: Proc. Nat'l. Acad. Sci. USA 94, 2019-2024, 1997; cited from earlier work
[5] = 14 days treatment, 90 days after ONT
[6] = 28 days treatment, 90 days after ONT
[7] = distal stump, first 28 days after transection
[8] = proximal stump, first 28 days after transection
[9] = 28 day treatment beginning 8 weeks after onset of diabetes
[10] = retention after 3 weeks of dosing

CCC(C)(C)C(=O)C(=O)N1CCC[C@H]1C(=O)OCCCc1cccnc1 [GPI 1046]
Clearance [1]: 3.8 µL/min | RT 97 RCC axon density 11 days after ON transection (36 ON axon rescued) [2]: 60.5% | % surviving RGCs with ON axons (optic nerve axons; 14 days treatment): 33.6% | ON head area (% sham) (optic nerve axons; 14 days treatment): 76% | increased ON axon density (optic nerve axons; 14 days treatment): 1.5 X | ON axon Count (optic nerve axons; 14 days treatment): 6820 | ON Axon density (optic nerve axons; 14 days treatment): 569 ± 23 | density of large, medium and small caliber optic nerve axons (optic nerve axons; 28 day treatment): significant increase in the density of large, and particularly medium and small caliber optic nerve axons | % surviving RGCs with ON axons (optic nerve axons; 28 days treatment): 81.4% | ON head area (% sham) (optic nerve axons; 28 days treatment): 95% | increased ON axon density (optic nerve axons; 28 days treatment): 5.0 X | ON axon Count (optic nerve axons; 28 days treatment): 22,861 | ON Axon density (optic nerve axons; 28 days treatment): 1526 ± 120 | effect on optic nerve axons versus ganglion cell bodies (optic nerve axons; FIG. 5): greater effect on optic nerve axons than ganglion cell bodies | protection of optic nerve axons (optic nerve axons; first 14 days after transection): 5.3% | preservation of optic nerve axons in the proximal stump (optic nerve axons; following optic nerve transection, FIG. 12): preserves optic nerve axons in the proximal stump | Distal optic nerve myelin basic protein Density, loss (optic nerve myelin; [5]): 47% | Proximal optic nerve myelin basic protein Density, % recovery (optic nerve myelin; [5]): 1.6% and 1.6 ± 3.0% | Distal optic nerve, shrinkage (optic nerve myelin; 14 days treatment, 90 days after ONT, cross sectional area vs sham control): 33% | Distal optic nerve myelin preservation (myelin levels of normal) (optic nerve myelin; [6]): ~ 99% and 99% | Distal optic nerve, less shrinkage (optic nerve myelin; [6]): 56% | Proximal optic nerve myelin basic protein Density, % recovery (optic nerve myelin; [6]): 70% and 70 ± 6.3% | density of degenerating myelin figures (optic nerve myelin; distal stump, first 14 days after transection): remained high | density of myelin (optic nerve myelin; distal stump, first 14 days after transection, in words): slightly increase the density of myelin | density of degenerating myelin figures (optic nerve myelin; [7]): decreased the density of degenerating myelin figures | fascicular pattern of myelin labeling (optic nerve myelin; [7]): dramatic protection of the fascicular pattern of myelin labeling | shrinkage of the distal stump (optic nerve myelin; first 14 days after transection, in words): did not protect against shrinkage of the distal stump | cross sectional shrinkage of the distal stump (optic nerve myelin; first 28 days after transection, in words): prevented cross sectional shrinkage of the distal stump | pattern of myelin degeneration (optic nerve myelin; proximal stump, first 14 days after transection): did not alter the pattern of myelin degeneration | density of degenerating myelin figures (optic nerve myelin; [8]): decreased the density of degenerating myelin figures | fascicular staining pattern for myelin basic protein (optic nerve myelin; [8]): dramatic preservation of the fascicular staining pattern for myelin basic protein | protection of the vulnerable ganglion cell population (retinal ganglion cells): noticeable protection of a large proportion of the vulnerable ganglion cell population | neovascularization in the PR, ONL, OPL and INL (retina; [9]): reduced neovascularization | protection against neuronal loss in the ONL (retina; [9]): did not appear to protect against neuronal loss in the ONL | loss of neurons in INL and GCL (retina; 28 day treatment, compared to streptozotocin/vehicle): appeared to decrease the loss of neurons in both the INL and GCL | behavioral sequelae of diabetic sensory neuropathy [3]: ameliorates the behavioral sequelae of diabetic sensory neuropathy | latency, hot plate [3]: improvement in latency | latency, tail flick [3]: improvement in latency | spatial memory performance of mice with age-related spatial memory impairments (aged mice; systemic): significantly enhanced spatial memory performance | P, retention phase, young vs aged impaired GPI-1046 (aged mice; F1.69 =3.09): 0.08 | P, retention testing, aged impaired-vehicle vs aged impaired GPI-1046 (aged mice; F1.69 =8.11): 0.006 | retention phase, difference between young and aged impaired GPI-1046 groups (aged mice; [10]): no longer any statistically significant difference | retention testing, aged impaired-vehicle compared with aged impaired GPI-1046 (aged mice; [10]): "aged impaired-vehicle" treated animals performed significantly poorer than "aged impaired - GPI-1046" | peripheral nerve regeneration (peripheral nerve): enhance peripheral nerve regeneration | sprouting within the CNS (CNS): stimulate sprouting within the CNS following partial deafferentation | repair and regeneration in the central and peripheral nervous systems [4]: promote repair and regeneration in the central and peripheral nervous systems
